Results as given in US9839642B2, “Beta-tetrazolyl-propionic acids as metallo-beta-lactamase inhibitors” (priority 2014, dated 2017).

Columns and labels:
VIM-1 = VIM-1 (Pseudomonas aeruginosa, UniProt A0A0F7KYQ8); assay: Enzyme activity: determination of IC50, fluorescence assay with CCF2-FA substrate; type: biochemical; conditions: enzyme 30 pM, CCF2-FA 1.25 μM, 2 hours at 25° C.; read-out: VIM1 IC50
In short: (§1)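 Enzyme (1 pM NDM-1, 2 pM IMP-1, 30 pM VIM-1) incubated with inhibitor (20 to 0.00063 μM) and 1.25 μM CCF2-FA in 100 mM KH2PO4 pH 7, 0.005% Tween-20, 10 μM ZnSO4, 2 h at 25 °C. Fluorescence read at 460 nm (ex 405 nm); IC50 by 4-parameter fit.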

IMP-1 = IMP-1 (Serratia marcescens, UniProt P52699); assay: as above; type: biochemical; conditions: enzyme 2 pM, CCF2-FA 1.25 μM, 2 hours at 25° C.; read-out: IMP1 IC50
Chain of IMP-1 (P52699 19-246, looked up, species assumed): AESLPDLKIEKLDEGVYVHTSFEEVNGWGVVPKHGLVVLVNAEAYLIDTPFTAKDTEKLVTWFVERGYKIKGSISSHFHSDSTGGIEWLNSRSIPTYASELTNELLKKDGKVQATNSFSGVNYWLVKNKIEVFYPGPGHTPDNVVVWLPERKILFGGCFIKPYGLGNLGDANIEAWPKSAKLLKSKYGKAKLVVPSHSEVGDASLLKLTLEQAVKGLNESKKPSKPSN
In short: as §1

NDM-1 = NDM-1 (Klebsiella pneumoniae, UniProt C7C422); assay: as above; type: biochemical; conditions: enzyme 1 pM, CCF2-FA 1.25 μM, 2 hours at 25° C.; read-out: NDM1 IC50
Chain of NDM-1 (C7C422 29-270, looked up, species assumed): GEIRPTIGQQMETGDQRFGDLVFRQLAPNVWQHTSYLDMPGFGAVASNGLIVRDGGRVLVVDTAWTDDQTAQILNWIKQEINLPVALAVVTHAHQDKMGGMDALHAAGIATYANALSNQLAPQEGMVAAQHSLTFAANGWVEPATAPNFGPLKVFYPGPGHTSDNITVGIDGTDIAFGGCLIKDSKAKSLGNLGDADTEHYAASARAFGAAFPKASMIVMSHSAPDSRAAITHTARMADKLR
In short: as §1

[1] = system: Klebsiella pneumoniae expressing VIM-1 (IHMA599644); assay: Antibiotic potentiation activity: synergistic concentration (MITC95) with imipenem, growth by OD600; type: cell-based; conditions: 95% inhibition of bacterial growth, strain IHMA599644
In short: (§2)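 Strains grown overnight at 35° C, resuspended in saline, diluted 1:100 into 1.1×CAMHB; imipenem at 1 μg/ml or 4 μg/ml with test compound 200 μM to 0.195 μM. Incubated 22 hours to 24 hours at 35° C, OD600 read; MITC95 is lowest compound concentration inhibiting 95% of growth.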

[2] = system: Escherichia coli expressing NDM-1 (CLB30005); assay: as above; type: cell-based; conditions: 95% inhibition of bacterial growth, strain CLB30005
In short: as §2

[3] = system: Serratia marcescens expressing IMP-1 (CL5741); assay: as above; type: cell-based; conditions: 95% inhibition of bacterial growth, strain CL5741
In short: as §2

Structure (SMILES) | IC50 (VIM-1) | IC50 (IMP-1) | IC50 (NDM-1) | VIM1 KP599644 MITC95 [1] | NDM1 EC30005 MITC95 [2] | IMP1 SM5741 MITC95 [3]
CCC[C@H](C(=O)O)[C@H](Cc1ccc(-c2ccccc2CN2CCOCC2)cc1)c1nn[nH]n1 [Example 214, (2S)-2-[(1S)-2-[2′-(morpholin-4-ylmethyl)biphenyl-4-yl]-1-(2H-tetrazol-5-yl)ethyl]pentanoic acid] | 0.18 µM | 0.01 µM | 0.024 µM | >200 µM | 7.8 µM | 2.0 µM
CCC[C@H](C(=O)O)[C@H](Cc1ccc(-c2cnn(C)c2)cc1)c1nnn[nH]1 [Example 233, (2S)-2-[(1S)-2-[4-(1-methyl-1H-pyrazol-4-yl)phenyl]-1-(1H-tetrazol-5-yl)ethyl]pentanoic acid] | 0.004 µM | 0.052 µM | 0.018 µM | 75 µM | 18.8 µM | 16 µM
CCC[C@H](C(=O)O)[C@H](Cc1ccc(-c2ccc3c(c2)CNC3=O)cc1)c1nnn[nH]1 [Example 234, (2S)-2-[(1S)-2-[4-(1-oxo-2,3-dihydro-1H-isoindol-5-yl)phenyl]-1-(1H-tetrazol-5-yl)ethyl]pentanoic acid] | 0.0029 µM | 0.056 µM | 0.017 µM | 50 µM | 25 µM | 7.0 µM
CCC[C@H](C(=O)O)[C@H](Cc1ccc(-c2c(C)nn(C)c2C)cc1)c1nnn[nH]1 [Example 235, (2S)-2-{(1S)-1-(1H-tetrazol-5-yl)-2-[4-(1,3,5-trimethyl-1H-pyrazol-4-yl)phenyl]ethyl}pentanoic acid] | 0.0076 µM | 0.0058 µM | 0.0083 µM | >200 µM | 100 µM | 0.78 µM
CCC[C@H](C(=O)O)[C@H](Cc1ccc(-c2ccc3c(c2)CNCC3)cc1)c1nnn[nH]1 [Example 236, (2S)-2-[(1S)-2-[4-(1,2,3,4-tetrahydroisoquinolin-7-yl)phenyl]-1-(1H-tetrazol-5-yl)ethyl]pentanoic acid] | 0.0044 µM | 0.071 µM | 0.099 µM | 50 µM | 12.5 µM | 7.8 µM
CCC[C@H](C(=O)O)[C@H](Cc1ccc(-c2ccc3c(c2)CCNC3)cc1)c1nnn[nH]1 [Example 237, (2S)-2-[(1S)-2-[4-(1,2,3,4-tetrahydroisoquinolin-6-yl)phenyl]-1-(1H-tetrazol-5-yl)ethyl]pentanoic acid] | 0.004 µM | 0.088 µM | 0.088 µM | 38 µM | 9.4 µM | 4.7 µM
CCC[C@H](C(=O)O)[C@H](Cc1ccc(-c2cccc3c2CNC3=O)cc1)c1nnn[nH]1 [Example 238, (2S)-2-[(1S)-2-[4-(1-oxo-2,3-dihydro-1H-isoindol-4-yl)phenyl]-1-(1H-tetrazol-5-yl)ethyl]pentanoic acid] | 0.0017 µM | 0.049 µM | 0.0065 µM | 200 µM | 50 µM | 6.2 µM
CCC[C@H](C(=O)O)[C@H](Cc1ccc(-c2ccc3nncn3c2)cc1)c1nnn[nH]1 [Example 239, (2S)-2-[(1S)-1-(1H-tetrazol-5-yl)-2-(4-[1,2,4]triazolo[4,3-a]pyridin-6-ylphenyl)ethyl]pentanoic acid] | 0.0017 µM | 0.19 µM | 0.02 µM | 75 µM | 38 µM | 38 µM
CCC[C@H](C(=O)O)[C@H](Cc1ccc(-c2ccc(CN(C)C)cc2)cc1)c1nnn[nH]1 [Example 240, (2S)-2-[(1S)-2-{4′-[(dimethylamino)methyl]biphenyl-4-yl}-1-(1H-tetrazol-5-yl)ethyl]pentanoic acid] | 0.0065 µM | 0.075 µM | 0.1 µM | 125 µM | 25 µM | 7.8 µM
